In EP1304333A2, “6,7-Oxygenated steroids and uses related thereto” (Inflazyme Pharmaceuticals, Ltd., priority 1996, dated 1998):

Columns and labels:
isolated trachea = assay: Allergen (OA)-induced contraction of isolated trachea from sensitized guinea pigs; design: species or system guinea pig; settings: 20 µM compound
Description: The effects of a number of the compounds described herein on allergen-induced bronchoconstriction were evaluated for anti-asthma activity. The ability of a compound to inhibit allergen-induced decreases in lung function in sensitized guinea pigs in response to antigen-challenge is indicative of anti-asthma activity. In particular, the model system is useful in the evaluation of the potential effects of a compound in the treatment of the early asthmatic reaction (EAR) when severe bronchoconstriction occurs.
Guinea pigs were exposed to a nebulized solution of 1% ovalbumin (OA) in saline for 15 min. […] Tracheal rings were prepared and bathed in Krebs-Henseleit solution at 37°C and aerated with 5% CO2 in O2. Tissues were suspended under a resting tension of 2 g and isometric contractions were measured using force-displacement transducers coupled to a polygraph. Tissues were incubated with each compound or 0.1% dimethylsulfoxide (as a control) for 20 min, after which increasing concentrations of OA (0.001 - 100 µg/ml) were added to the tissue. After the final concentration of OA was added and the response was recorded, the tissues were stimulated with 100 µM methacholine which caused maximum contraction of the trachea. The magnitude of the contraction induced by OA in the presence of each compound was expressed as a percentage of the maximum contraction obtained using methacholine (100 µM).

rabbit platelets = assay: Inhibition of PAF-induced aggregation of rabbit platelets; format: cell-based; settings: 80 µM compound, 5 min preincubation, PAF-induced aggregation (title: 0.1 nM PAF) vs DMSO alone; for inhibition at 80 µM: Oryctolagus cuniculus, Platelet
Description: The assay system used to evaluate the ability of compounds to inhibit the aggregation of platelets in response to exogenous stimuli is indicative of anti-thrombotic or thrombolytic activity.
Platelets were isolated from rabbit blood and prepared at a density of 2.4 x 10^8 cells/ml in Tyrodes buffer (pH 7.2) containing Ca^2+. Platelets were incubated with each compound for 5 min at 37°C prior to stimulation. Platelets were stimulated with 1 nM platelet activating factor (PAF; EC75) in the presence of each of the compounds and aggregation was monitored for 5 min. Compounds were solubilized in dimethylsulfoxide (DMSO) and aggregation was measured as a percentage of the response to 1 nM PAF obtained in the presence of the appropriate concentration of DMSO. The degree of inhibition caused by each sample was calculated using the control response in the presence of DMSO equal to 100%.

[1] = test system: ileum from sensitized guinea pigs; assay: Antigen (ovalbumin)-induced contraction of isolated ileum from sensitized guinea pigs; design: species or system guinea pig; settings: each 30 µM, 20 min; 100 µg/ml ovalbumin; mean, n=3-4, vs DMSO alone
Description: The ability of compounds to inhibit allergen-induced contraction of ileum from sensitized animals is indicative of antiallergic activity. Sensitized guinea pig ileum is particularly useful in measuring the immediate allergic response.
The guinea pig ileum has been used to evaluate the ability of compounds to inhibit allergen-induced histamine and mediator release causing smooth muscle contraction. Guinea pigs were sensitized by an intraperitoneal injection of 100 mg ovalbumin and an intramuscular injection of 50 mg ovalbumin on day 0, followed by a second intramuscular injection of 50 mg ovalbumin on day 1. […] Segments of ileum were prepared and suspended, with muscle contractions being measured in the longitudinal plane, in Tyrode's buffer at 37°C and aerated with 5% CO2 in O2. Tissues were suspended under a resting tension of 2 grams and isometric contractions were measured using force-displacement transducers coupled to a polygraph. Tissues were stimulated with 3 µM histamine 3 times to ensure reproducible contractions were obtained. Tissues were then incubated with each compound (30 µM) or 0.15% dimethylsulphoxide (DMSO) as a control, for 20 min, after which time the tissues were challenged with 100 µg/ml ovalbumin. The magnitude of the contraction induced by OA in the presence of each compound was expressed as a percentage of the contraction obtained to 3 µM histamine. […]

[2] = test system: rat mast cell line (RBL-2H3); assay: Antigen-induced release of hexosaminidase from passively sensitized rat mast cells; format: cell-based; settings: Table 3; each 25 µM; vs DMSO alone
Description: The anti-allergic effects of various polyhydroxylated steroids of the present invention were evaluated by measuring their effect on antigen-induced secretion of hexosaminidase from a passively sensitized rat mast cell line (RBL-2H3) and a murine mast cell line (MC/9). The ability of agents to inhibit the release of mast cell granule contents, e.g., histamine and hexosaminidase, is indicative of anti-allergy and/or anti-asthma activity.
Hexosaminidase is released from the mast cell granule along with histamine and other mediators during antigen challenge. RBL-2H3 and MC/9 cells were grown in culture and passively sensitized to dinitrophenol (DNP) using anti-human-DNP (IgE). […] Aliquots of the supernatant were removed and used to measure the amount of hexosaminidase released during challenge with the antigen. […] The effect of each compound was determined as a percentage of the antigen-induced response (minus background release) obtained in the presence of DMSO alone, as set forth in Tables 2 and 3. These values were used to determine the degrees of inhibition of antigen-induced hexosaminidase release from the cells.

Compound	percentage contraction compared to 100µM methacholine (100%) (isolated trachea; Study 1, 0.001 µg/ml OA)	percentage contraction compared to 100µM methacholine (100%) (isolated trachea; Study 1, 0.003 µg/ml OA)	percentage contraction compared to 100µM methacholine (100%) (isolated trachea; Study 1, 0.01 µg/ml OA)	percentage contraction compared to 100µM methacholine (100%) (isolated trachea; Study 1, 0.03 µg/ml OA)	percentage contraction compared to 100µM methacholine (100%) (isolated trachea; Study 1, 0.1 µg/ml OA)	percentage contraction compared to 100µM methacholine (100%) (isolated trachea; Study 1, 0.3 µg/ml OA)	percentage contraction compared to 100µM methacholine (100%) (isolated trachea; Study 1, 1.0 µg/ml OA)	percentage contraction compared to 100µM methacholine (100%) (isolated trachea; Study 1, 3.0 µg/ml OA)	percentage contraction compared to 100µM methacholine (100%) (isolated trachea; Study 1, 10.0 µg/ml OA)	percentage contraction compared to 100µM methacholine (100%) (isolated trachea; Study 1, 30.0 µg/ml OA)	inhibition at 80 µM (rabbit platelets)	Percentage Inhibition [1]	percentage contraction compared to 100µM methacholine (100%) (isolated trachea; Study 2, 0.01 µg/ml OA)	percentage contraction compared to 100µM methacholine (100%) (isolated trachea; Study 2, 0.1 µg/ml OA)	percentage contraction compared to 100µM methacholine (100%) (isolated trachea; Study 2, 1 µg/ml OA)	percentage contraction compared to 100µM methacholine (100%) (isolated trachea; Study 2, 10 µg/ml OA)	percentage contraction compared to 100µM methacholine (100%) (isolated trachea; Study 2, 100 µg/ml OA)	Percentage Inhibition (mean) RBL-2H3 Cells [2]	%Inhibition at 80 µM (rabbit platelets)
C[C@]12CC[C@@H](O)[C@H](O)C1[C@@H](O)[C@H](O)C1C2CC[C@]2(C)C(=O)CCC12 (some centres unmarked) [Compound 145]	0.8%	6.2%	5.9%	7.6%	8.3%	13.6%	14.8%	20.0%	28.0%	31.0%									
C[C@]12CC[C@@H](O)[C@H](O)[C@@H]1[C@@H](O)[C@H](O)[C@@H]1[C@@H]2CC[C@]2(C)[C@@H](O)CC[C@@H]12 [Compound 241, 3α,4β,6α,7β,17β-pentahydroxy-5α-androstane]	8.5%	12.6%	17.1%	25.8%	31.0%	33.4%	36.3%	34.4%	35.0%	37.0%	93.1%								
CC1(C)O[C@@H]2C3C(CC[C@@]4(C)C3CC[C@@H]4O[Si](C)(C)C(C)(C)C)[C@@]3(C)CC[C@H](O)[C@@H](O)C3[C@H]2O1 (some centres unmarked) [Compound 236]	1.9%	5.6%	5.6%	5.6%	11.1%	16.7%	39%	28%	39%	41%									
CC(C)[C@@H]1CC(O)OC([C@@H](C)[C@H]2CC(=O)[C@@H]3[C@@H]4C(O)C(O)C5C(O)C(O)CC[C@]5(C)[C@H]4CC[C@]23C)C1 (stereo partly drawn) [Compound 165, 22,29-epoxy-3,4,6,7,29-pentahydroxy-14β-stigmastan-15-one]											51.2%	27.0%							
C[C@]12CC[C@@H](O)C[C@@H]1[C@@H](O)[C@H](O)[C@@H]1[C@@H]2CC[C@]2(C)C(=O)CC[C@@H]12 [Compound 326]													0%	10.25%	23.4%	43.9%	49.1%		
CC[C@H]1CCC2C3C(CC[C@@]21C)[C@@]1(C)CC[C@@H](O)CC1[C@@H](O)[C@@H]3O (some centres unmarked) [Compound 339]												36.3%							
C[C@]12CC[C@@H](O)C[C@@H]1[C@@H](O)[C@H](O)[C@@H]1[C@@H]2CC[C@]2(C)[C@@H](O)CC[C@@H]12 [Compound 327]													0%	0%	9.1%	27.3%	40.9%		
3β, 4α, 6α, 7β, 17β-pentahydroxy-5α-androstane 6,7-acetonide [Compound 246]	2.6%	4.0%	6.5%	9.7%	12.2%	15.3%	20.0%	21.0%	23.0%	22.0%								29.4%	21%
